Patent US20250092056A1, “URACIL DERIVATIVES HAVING VIRUS REPLICATION INHIBITORY ACTIVITY AND PHARMACEUTICAL COMPOSITION COMPRISING THE SAME” (Shionogi & Co., Ltd., priority 2022, published 2025)
Where two headings read alike, the source gives them in different places.

Experiments:
SARS-CoV-2 = test: Cytopathic effect (CPE) suppression effect confirmation test using HEK293T/ACE2-TMPRSS2 cells; type: cell-based; conditions: Severe acute respiratory syndrome coronavirus 2, HEK-293T
[1] = target: Recombinant SARS-CoV-2 3CL Protease (Severe acute respiratory syndrome coronavirus 2 (2019-nCoV) (SARS-CoV-2), UniProt P0DTD1); test: biochemical; type: biochemical; conditions: 50% SARS-CoV-2 3CL protease inhibitory concentration; read-out: IC50
[2] = 72 h, HEK293T/ACE2-TMPRSS2 cells, CPE suppression, CellTiter-Glo 2.0 after 3 days culture, read-out: EC50 (50% SARS-CoV-2 infected cell death inhibitory concentration), class
[3] = 50% SARS-CoV-2 infected cell death inhibitory concentration, HEK293T/ACE2-TMPRSS2 cells, read-out: EC50
[4] = 72 h, read-out: EC50 (50% SARS-CoV-2 infected cell death inhibitory concentration), class, HEK293T/ACE2-TMPRSS2 cells, CPE suppression, CellTiter-Glo 2.0 after 3 days culture
[5] = 72 h, read-out: EC50 (50% SARS-CoV-2 infected cell death inhibitory concentration), HEK293T/ACE2-TMPRSS2 cells, CPE suppression, CellTiter-Glo 2.0 after 3 days culture

Compound	EC50 (SARS-CoV-2; [2]) [µM]	IC50 [1] [µM]	EC50 (SARS-CoV-2; [3]) [µM]	EC50 (SARS-CoV-2; [4]) [µM]	EC50 (SARS-CoV-2; [5]) [µM]
Cc1cncc(-n2c(=O)c(Cc3cc(F)c(F)c(F)c3)c(N3CCCC3)n(CC#N)c2=O)c1 [Compound I-203]	< 0.1	0.01 to 0.1			
N#CCn1c(N2CC3(CCOC3)C2)c(CCCC(F)(F)F)c(=O)n(-c2cncc(Cl)c2)c1=O [Compound I-365]		0.01 to 0.1	0.1 to 1		
N#CCn1c(N2CC3(CCCO3)C2)c(-c2ccc(F)c(Cl)c2)c(=O)n(-c2cncc(Cl)c2)c1=O [Compound I-021]		< 0.01		< 0.1	
Cc1cc(-n2c(=O)c(-c3cc(F)c(F)c(Cl)c3)c(N3CC4(C3)CC(F)(F)C4)n(CC#N)c2=O)cc(=O)[nH]1 [Compound I-033]		< 0.01		0.1 to 1	
N#CCn1c(N2C[C@@H]3C[C@H]2CO3)c(-c2ccc(F)c(F)c2)c(=O)n(-c2cncc(Cl)c2)c1=O [Compound I-320]		< 0.01	< 0.1		
N#CCn1c(N2CC[C@@](O)(C3CC3)C2)c(-c2ccc(F)c(Cl)c2)c(=O)n(-c2cncc(Cl)c2)c1=O (single isomer, unassigned) [Compound I-356]		< 0.01	< 0.1		
Cc1cncc(-n2c(=O)c(-c3ccc(F)c(Cl)c3)c(-c3cnc4ccccc4c3)n(CC#N)c2=O)c1 [Compound I-017]		< 0.01		< 0.1	
N#CCn1c(N2CC3(C2)CC(F)(F)C3)c(-c2ccc(F)c(Cl)c2)c(=O)n(-c2cc(C#N)cnn2)c1=O [Compound I-216]		< 0.01	< 0.1		
N#CCn1c(N2CC3(C2)CC(F)(F)C3)c(-c2ccc(F)c(Cl)c2)c(=O)n(-c2cc(OCC(F)F)cnn2)c1=O [Compound I-217]		< 0.01	< 0.1		
Cc1cc(-n2c(=O)c(-c3ccc(F)c(Cl)c3)c(N3CC4(C3)CC(F)(F)C4)n(CC#N)c2=O)cc(=O)o1 [Compound I-344]		0.01 to 0.1	< 0.1		
Cc1cncc(-n2c(=O)c(-c3ccc(F)c(Cl)c3)c(N3CCC(C(F)(F)F)CC3)n(CC#N)c2=O)n1 [Compound I-199]		< 0.01		< 0.1	
N#CCn1c(N2CCC(O)(C(F)(F)F)CC2)c(-c2ccc(F)c(Cl)c2)c(=O)n(-c2cnc3cc(Cl)ccn23)c1=O [Compound I-141]	< 0.1	0.01 to 0.1			
Cc1cncc(-n2c(=O)c(Cc3cc(F)c(F)c(F)c3)c(CCCO)n(CC#N)c2=O)c1 [Compound I-052]	< 0.1	0.01 to 0.1			
Cc1cc(-n2c(=O)c(-c3cc(Cl)cc(C(F)(F)F)c3)c(N3CC4(C3)CC(F)(F)C4)n(CC#N)c2=O)cc(=O)[nH]1 [Compound I-201]		< 0.01		0.1 to 1	
Cn1cnc(Cn2c(=O)c(Cc3cc(F)c(F)c(F)c3)c(-c3cc4ccccc4s3)n(CC#N)c2=O)n1 [Compound I-005]		> 0.1		0.1 to 1	
N#CCn1c(N2CC(OC(F)F)C2)c(-c2ccc(F)c(Cl)c2)c(=O)n(-c2cncc(Cl)c2)c1=O [Compound I-298]		< 0.01	< 0.1		
Cc1cncc(-n2c(=O)c(Cc3cc(F)c(F)c(F)c3)c(N3CCC(S(N)(=O)=O)C3)n(CC#N)c2=O)c1 (racemic) [Compound I-108]		< 0.01		0.1 to 1	
N#CCn1c(N2CC3(C2)CC(F)(F)C3)c(-c2ccc(F)c(Cl)c2)c(=O)n(-c2cncc(C(F)F)n2)c1=O [Compound I-208]		0.0018			0.00704
N#CCn1c(N2CC3(C2)CC(F)(F)C3)c(-c2cncc(Cl)c2)c(=O)n(-c2cncc(Cl)c2)c1=O [Compound I-258]		< 0.01	< 0.1		
N#CCn1c(N2C[C@@H]3[C@@H](O)[C@@H]3C2)c(-c2ccc(F)c(Cl)c2)c(=O)n(-c2cncc(Cl)c2)c1=O [Compound I-082]		< 0.01		< 0.1	

Compound	EC50 (SARS-CoV-2; [2]) [µM]	IC50 [1] [µM]	EC50 (SARS-CoV-2; [3]) [µM]	EC50 (SARS-CoV-2; [4]) [µM]	EC50 (SARS-CoV-2; [5]) [µM]
N#CCn1c(N2CC(O)(C(F)(F)F)C2)c(-c2ccc(F)c(Cl)c2)c(=O)n(-c2cncc(C(F)F)n2)c1=O [Compound I-383]		< 0.01	< 0.1		
N#CCn1c(N2CC3(C2)CC(F)(F)C3)c(-c2ccc(F)c(Cl)c2)c(=O)n(-c2cncc(Br)c2)c1=O [Compound I-361]		< 0.01	< 0.1		
CCCCc1c(-c2ccc(F)cc2)n(CC#N)c(=O)n(-c2cncc(Cl)c2)c1=O [Compound I-286]		0.01 to 0.1	0.1 to 1		
Cc1cc(-n2c(=O)c(-c3ccc(F)c(Cl)c3)c(N3CC4(CCOCC4)C3)n(CC#N)c2=O)cc(=O)[nH]1 [Compound I-161]		< 0.01		1 to 5	
COC1CCN(c2c(Cc3cc(F)c(F)c(F)c3)c(=O)n(-c3cncc(C)c3)c(=O)n2CC#N)CC1 [Compound I-106]		< 0.01		< 0.1	
Cc1c(-c2ccc(F)c(Cl)c2)c(=O)n(-c2cncc(Cl)c2)c(=O)n1CC(=O)CO [Compound I-443]		> 0.1	0.1 to 1		
N#CCn1c(N2CC3(CCOC3)C2)c(Cc2cc(F)c(F)c(F)c2)c(=O)n(-c2cnc3ccc(F)cn23)c1=O [Compound I-129]	0.1 to 1	0.01 to 0.1			
N#CCn1c(N2C[C@@H]3CC[C@H]2C3)c(-c2ccc(F)c(Cl)c2)c(=O)n(-c2cncc(Cl)c2)c1=O (racemic) [Compound I-267]		< 0.01	< 0.1		
N#CCn1c(N2CC3(CCCO3)C2)c(-c2ccc(F)c(Cl)c2)c(=O)n(-c2cnc3cc(F)ccn23)c1=O [Compound I-152]		< 0.01		< 0.1	
Cn1cnc(Cn2c(=O)c(Cc3cc(F)c(F)c(F)c3)c(N3Cc4ccccc4C3)n(CC#N)c2=O)n1 [Compound I-008]		> 0.1		0.1 to 1	
Cc1cncc(-n2c(=O)c(-c3ccc(F)c(Cl)c3)c(N3CC4(CCCO4)C3)n(CC#N)c2=O)n1 [Compound I-195]		< 0.01		< 0.1	
N#CCc1c(N2Cc3ccccc3C2)n(Cc2cc(F)c(F)c(F)c2)c(=O)n(-c2cncc(Cl)c2)c1=O [Compound I-185]		0.027			0.0405
Cc1cncc(-n2c(=O)c(-c3ccc(F)c(Cl)c3)c(C#CC3CC3)n(CC#N)c2=O)c1 [Compound I-248]		< 0.01	0.1 to 1		
N#CCn1c(N2CC3(C2)CC(F)(F)C3)c(-c2ccc(F)c(Cl)c2)c(=O)n(-c2cncc(C(F)(F)F)n2)c1=O [Compound I-207]		< 0.01	< 0.1		
N#CCn1c(N2CC3(CCOC3)C2)c(-c2cc(F)cc(Cl)c2)c(=O)n(-c2cncc(Cl)c2)c1=O [Compound I-180]		< 0.01		< 0.1	
N#CCn1c(N2C[C@@H]3C[C@H]2CO3)c(-c2ccc(F)c(C#N)c2)c(=O)n(-c2cncc(Cl)c2)c1=O [Compound I-376]		< 0.01	< 0.1		
Cc1cc(-n2c(=O)c(-c3ccc(F)c(Cl)c3)c(N3CC4(CCOC4)C3)n(CC#N)c2=O)cnn1 [Compound I-188]	0.1 to 1	0.01 to 0.1			
N#CCn1c(N2CCC(F)(F)CC2)c(-c2ccc(F)c(Cl)c2)c(=O)n(-c2cncc(C#N)c2)c1=O [Compound I-403]		< 0.01	< 0.1		
N#CCn1c(N2CC3(CCOC3)C2)c(C2=CCCCCC2)c(=O)n(-c2cncc(Cl)c2)c1=O [Compound I-227]		< 0.01	< 0.1		
N#CCn1c(N2CC(C(F)(F)F)C2)c(-c2ccc(F)c(C(F)F)c2)c(=O)n(-c2cncc(Cl)c2)c1=O [Compound I-341]		< 0.01	< 0.1		
